Laboratory results as given in patent US8252832B2, “Kinesin inhibitors as cancer therapeutics” (Novartis AG, priority 2007, dated 2012).
Where two headings read alike, the source gives them in different places.

Columns and labels:
Assay in all cases: CellTiter-Glo, NCI60 panel
Type in all cases: cell-based
SK-MEL-28 = settings: Melanoma; for GI50: Homo sapiens
From the text: (§1) Identification of tumor types that are the most sensitive to the KSP inhibitors of the present invention can be accomplished using an unbiased approach that uses several cell-based assays. The assays chosen were as follows: • CellTiter-Glo®. This is an assay designed to measure ATP concentration in a cell culture, and can be correlated to cell number. Briefly CellTiter-Glo® (Promega Corporation) is a homogeneous method using the single CellTiter-Glo® reagent to detect ATP wherein ATP in the assay drives the activity of a thermostable luciferase to create a luminescent signal which can then be measured and correlated with the number of viable cells. Briefly, for adherent cells, 1,000 to 5,000 cells/well were plated in 96-well plates (100 μl/well) and let to adhere for 24 hours before being treated with drug. For non-adherent cells, 1,000 to 10,000 cells/well were plated in 96-well plates (100 μl/well) and immediately treated with drug. Drug dilutions were prepared in DMSO at 1000 times the final concentration. These dilutions were then diluted 1/100 in growth media before being added to the cells (11 μl/well) to achieve the desired final concentration. After 48 h in a 37° C. tissue culture incubator, the plates were processed for the CellTiter-Glo®assay according to the manufacturer's instructions. Protocol for a 72 hour cell proliferation assay: The 72 hour assay was performed the same way as the 48 hour assay except for the following modifications: For adherent cells, 500 to 5,000 cells/well were plated in 96-well plates (90 μl/well cell growth media) and left to adhere for 24 hours before being treated with drug. For non-adherent cells, 1,000 to 10,000 cells/well were plated in 96-well plates (90 μl/well cell growth media) and immediately treated with drug. Data values presented represent the concentration of test compound required for a 50% reduction in growth. • LDH release. The Cytotoxicity Detection KitPLUS (LDH) assay (Roche Diagnostics, Manheim, Germany) measures the amount of LDH released in the media by dying cells; LDH catalyzes the conversion of lactate into pyruvate. The enzymatic reaction is coupled to a chemical reaction that uses a tetrazolium salt to form a formazan that is red and can be detected by its absorbance at 490 nm. This assay measures the amount of cell death after drug treatment. Cells were plated at 10,000 cells/well in 96-well plates (100 μl/well). Adherent cells were let to adhere for 24 hours before being treated with drug, whereas non-adherent cells were immediately treated with drug. Drug dilutions were prepared in DMSO at 1000 times the final concentration. These dilutions were then diluted 1/100 in growth media before being added to the cells (11 μl/well) to achieve the desired final concentration. After 48 h in a 37° C. tissue culture incubator, the plates were processed for the Cytotoxicity Detection KitPLUS (LDH) assay according to the manufacturer's instructions. The media only values were subtracted from all the data points before analysis. Data values presented correspond to the compound concentration wherein LDH output is at half maximal level. • Caspase-Glo® 3/7. The Caspase-Glo® 3/7 Assay (Promega Corporation) is a homogeneous luminescent assay that measures caspase-3/7 activities. The assay provides a proluminescent caspase-3/7 DEVD-aminoluciferin substrate and a thermostable luciferase in a reagent optimized for caspase-3/7 activity, luciferase activity and cell lysis. Adding the single Caspase-Glo® 3/7 Reagent results in cell lysis, followed by caspase cleavage of the substrate. This liberates free aminoluciferin, which is consumed by the luciferase, generating a luminescent signal. The signal is proportional to caspase-3/7 activity. Data values presented correspond to the compound concentration wherein caspase 3/7 activity is at half maximal level. […]

HOP-62 = settings: NSCL; for GI50: Homo sapiens
From the text: as §1

NCI-H460 = settings: NSCL; for GI50: Homo sapiens
From the text: as §1

HL-60 = settings: Leukemia; for GI50: Homo sapiens
From the text: as §1

A549 = settings: NSCL; for GI50: Homo sapiens
From the text: as §1

SK-OV-3 = settings: Ovarian; for GI50: Homo sapiens
From the text: as §1

MALME-3M = settings: Melanoma; for GI50: Homo sapiens
From the text: as §1

BT-474 = settings: Breast; for GI50: Homo sapiens
From the text: as §1

SNB-75 = settings: CNS; for GI50: Homo sapiens
From the text: as §1

TK-10 = settings: Renal; for GI50: Homo sapiens
From the text: as §1

MCF7 = settings: Breast; for GI50: Homo sapiens
From the text: as §1

ACHN = settings: Renal; for GI50: Homo sapiens
From the text: as §1

OVCAR-4 = settings: Ovarian; for GI50: Homo sapiens
From the text: as §1

RXF 393 = settings: Renal; for GI50: Homo sapiens
From the text: as §1

UACC-62 = settings: Melanoma; for GI50: Homo sapiens
From the text: as §1

OVCAR-5 = settings: Ovarian; for GI50: Homo sapiens
From the text: as §1

[1] = GI50 in nM, read-out: Log(GI50) (converted)

CC(C)(C)[C@H](c1nc(-c2cc(F)ccc2F)cn1Cc1ccccc1)N(CC[C@H](N)CF)C(=O)CO [Compound IIa]
GI50 (SK-MEL-28; [1]): 10 nM
GI50 (SK-MEL-28; read-out: GI50): 10 nM
Differential vs mean Log(GI50) (SK-MEL-28): −0.669
GI50 (HOP-62; [1]): 10 nM
GI50 (HOP-62; read-out: GI50): 10 nM
Differential vs mean Log(GI50) (HOP-62): −0.669
GI50 (NCI-H460; [1]): 0.378 nM
GI50 (NCI-H460; read-out: GI50): 0.378 nM
Differential vs mean Log(GI50) (NCI-H460): 0.754
GI50 (HL-60; [1]): 0.165 nM
GI50 (HL-60; read-out: GI50): 0.165 nM
Differential vs mean Log(GI50) (HL-60): 1.114
GI50 (A549; [1]): 10 nM
GI50 (A549; read-out: GI50): 10 nM
Differential vs mean Log(GI50) (A549): −0.669
GI50 (SK-OV-3; [1]): 0.421 nM
GI50 (SK-OV-3; read-out: GI50): 0.421 nM
Differential vs mean Log(GI50) (SK-OV-3): 0.707
GI50 (MALME-3M; [1]): 10 nM
GI50 (MALME-3M; read-out: GI50): 10 nM
Differential vs mean Log(GI50) (MALME-3M): −0.669
Differential vs mean Log(GI50) (BT-474): −0.669
GI50 (BT-474; [1]): 10 nM
GI50 (BT-474; read-out: GI50): 10 nM
Differential vs mean Log(GI50) (SNB-75): −0.669
GI50 (SNB-75; [1]): 10 nM
GI50 (SNB-75; read-out: GI50): 10 nM
GI50 (TK-10; [1]): 10 nM
GI50 (TK-10; read-out: GI50): 10 nM
Differential vs mean Log(GI50) (TK-10): −0.669
Differential vs mean Log(GI50) (MCF7): −0.669
GI50 (MCF7; [1]): 10 nM
GI50 (MCF7; read-out: GI50): 10 nM
GI50 (ACHN; [1]): 10 nM
GI50 (ACHN; read-out: GI50): 10 nM
Differential vs mean Log(GI50) (ACHN): −0.669
GI50 (OVCAR-4; [1]): 10 nM
GI50 (OVCAR-4; read-out: GI50): 10 nM
Differential vs mean Log(GI50) (OVCAR-4): −0.669
GI50 (RXF 393; [1]): 10 nM
GI50 (RXF 393; read-out: GI50): 10 nM
Differential vs mean Log(GI50) (RXF 393): −0.669
GI50 (UACC-62; [1]): 10 nM
GI50 (UACC-62; read-out: GI50): 10 nM
Differential vs mean Log(GI50) (UACC-62): −0.669
GI50 (OVCAR-5; [1]): 10 nM
GI50 (OVCAR-5; read-out: GI50): 10 nM
Differential vs mean Log(GI50) (OVCAR-5): −0.669
